In ChEMBL document CHEMBL3046356, “Synthesis and anticholinesterase activity of fumaramide derivatives” (Med Chem Res, 2013) one finds IC50 and inhibition data, which are given here for 33 molecules.

Calls of active or inactive are those of the source. No cut-off for these calls is given here.

Assay [1] has as its target Cholinesterase (Equus caballus, UniProt P81908). Put plainly: Inhibition of BCHE in Equus caballus (horse) serum using butyrylthiocholine iodide as substrate preincubated with enzyme for 15 min prior to substrate addition measured every 45 s by colorimetric Ellman's method.
Assay [2] addresses Acetylcholinesterase (Electrophorus electricus, UniProt O42275). Put plainly: Inhibition of Electrophorus electricus (electric eel) AChE using acetylthiocholine iodide as substrate preincubated with enzyme for 15 min prior to substrate addition measured every 45 s by colorimetric Ellman's method. (In general: In Ellman's method for cholinesterases, released thiocholine reacts with DTNB.)

The target in assay [3] is Acetylcholinesterase (Electrophorus electricus) (UniProt O42275). Put plainly: Inhibition of Electrophorus electricus (electric eel) AChE using acetylthiocholine iodide as substrate at 10 mg/ml by TLC-B assay.
Assay [4] concerns the target Cholinesterase (Equus caballus) (UniProt P81908). Put plainly: Non-competitive inhibition of BCHE in Equus caballus (horse) serum assessed as decrease in Vmax with unchanged Km using butyrylthiocholine iodide as substrate by Lineweaver-burk plot analysis.
The target of assay [5] is Acetylcholinesterase (Electrophorus electricus) (UniProt O42275). Description: Non-competitive inhibition of Electrophorus electricus (electric eel) AChE assessed as decrease in Vmax with unchanged Km using acetylthiocholine iodide as substrate by Lineweaver-burk plot analysis.

Sequence of Acetylcholinesterase (Electrophorus electricus) (O42275 24-633 limits assumed): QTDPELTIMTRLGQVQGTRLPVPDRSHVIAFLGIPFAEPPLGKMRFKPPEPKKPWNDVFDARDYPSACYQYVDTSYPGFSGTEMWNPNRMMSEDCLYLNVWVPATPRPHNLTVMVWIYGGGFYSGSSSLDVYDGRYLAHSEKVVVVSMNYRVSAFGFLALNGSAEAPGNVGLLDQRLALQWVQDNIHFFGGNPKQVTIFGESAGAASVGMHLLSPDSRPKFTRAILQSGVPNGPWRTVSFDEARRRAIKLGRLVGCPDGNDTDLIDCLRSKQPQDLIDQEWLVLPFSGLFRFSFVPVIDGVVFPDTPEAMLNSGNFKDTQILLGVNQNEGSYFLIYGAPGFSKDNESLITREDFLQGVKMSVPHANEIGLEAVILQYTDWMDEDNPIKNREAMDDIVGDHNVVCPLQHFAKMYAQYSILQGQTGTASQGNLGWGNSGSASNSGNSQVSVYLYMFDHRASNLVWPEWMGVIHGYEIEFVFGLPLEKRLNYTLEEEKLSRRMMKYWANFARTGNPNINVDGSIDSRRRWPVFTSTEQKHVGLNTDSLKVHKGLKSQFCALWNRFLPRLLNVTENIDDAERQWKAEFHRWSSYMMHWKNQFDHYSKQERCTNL
Sequence of Cholinesterase (P81908 whole entry): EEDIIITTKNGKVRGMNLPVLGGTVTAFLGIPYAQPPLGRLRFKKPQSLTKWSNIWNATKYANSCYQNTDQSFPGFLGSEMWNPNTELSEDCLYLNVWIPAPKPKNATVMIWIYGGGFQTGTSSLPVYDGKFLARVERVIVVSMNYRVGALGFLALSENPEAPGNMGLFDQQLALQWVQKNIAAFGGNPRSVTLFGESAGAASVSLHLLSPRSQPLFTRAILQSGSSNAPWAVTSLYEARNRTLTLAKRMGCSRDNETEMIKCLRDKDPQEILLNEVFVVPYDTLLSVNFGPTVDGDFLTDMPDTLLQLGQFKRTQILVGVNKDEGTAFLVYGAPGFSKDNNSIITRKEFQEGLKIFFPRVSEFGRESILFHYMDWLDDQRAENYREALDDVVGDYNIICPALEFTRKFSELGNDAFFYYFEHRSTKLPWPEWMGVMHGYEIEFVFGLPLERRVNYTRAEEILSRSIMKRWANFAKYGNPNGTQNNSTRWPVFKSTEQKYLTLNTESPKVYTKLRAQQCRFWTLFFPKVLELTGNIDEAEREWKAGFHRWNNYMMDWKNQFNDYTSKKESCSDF
Sequence of Acetylcholinesterase (O42275 whole entry): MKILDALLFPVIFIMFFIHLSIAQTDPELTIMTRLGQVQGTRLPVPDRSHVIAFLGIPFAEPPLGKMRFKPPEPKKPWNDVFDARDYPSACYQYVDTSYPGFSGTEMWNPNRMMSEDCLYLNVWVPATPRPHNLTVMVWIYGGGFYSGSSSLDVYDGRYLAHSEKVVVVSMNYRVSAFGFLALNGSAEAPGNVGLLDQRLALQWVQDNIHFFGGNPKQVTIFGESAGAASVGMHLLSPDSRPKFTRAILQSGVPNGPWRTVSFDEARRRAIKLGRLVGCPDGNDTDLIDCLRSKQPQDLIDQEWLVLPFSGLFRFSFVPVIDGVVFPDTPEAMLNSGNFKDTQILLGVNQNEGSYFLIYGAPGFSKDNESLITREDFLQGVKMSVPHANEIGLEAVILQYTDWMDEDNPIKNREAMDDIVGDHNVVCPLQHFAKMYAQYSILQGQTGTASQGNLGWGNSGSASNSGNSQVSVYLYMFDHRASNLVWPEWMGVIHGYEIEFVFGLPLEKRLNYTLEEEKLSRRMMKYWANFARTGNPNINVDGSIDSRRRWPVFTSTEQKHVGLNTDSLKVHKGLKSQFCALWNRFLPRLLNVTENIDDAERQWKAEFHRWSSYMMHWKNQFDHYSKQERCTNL
Sequence of Cholinesterase (Equus caballus) (P81908 whole entry): as the sequence (P81908 whole entry) above

As to `c1ccc(CNc2ccccc2)cc1` [N-BENZYLANILINE], the IC50 was more than 100 µM in assay [1] and 13 µM in assay [2]. The inhibition result in assay [3] is “Active”.

On to `Cc1ccc(CNc2ccc(C)cc2)cc1`, for which the IC50 in assay [1] and in assay [2] was more than 100 µM each time. Further, the inhibition entry in assay [3] is “Active”.

For the molecule `Brc1ccc(NCc2ccccc2)cc1`, the IC50 in assay [1] and in assay [2] was more than 100 µM each time. In addition, the inhibition result in assay [3] is “Active”.

Regarding `CCOc1ccc(N(Cc2ccc(C)cc2)C(=O)/C=C/C(=O)N(Cc2ccc(C)cc2)c2ccc(OCC)cc2)cc1`, the IC50 in assay [1] is more than 100 µM; in assay [2], 2.23 µM. For the same molecule, in assay [3], the inhibition entry is “Active”.

Take `O=C(/C=C/C(=O)N(Cc1ccccc1)c1ccc(Br)cc1)N(Cc1ccccc1)c1ccc(Br)cc1`: the inhibition entry in assay [4], in assay [5] and in assay [3] was “Active” in each case. The IC50 in assay [1] worked out at 16.5 µM; in assay [2], 8.06 µM.

In the case of `Cc1ccc(CNc2ccc(Br)cc2)cc1`, the IC50 in assay [1] and in assay [2] was more than 100 µM throughout. Besides, the inhibition entry in assay [3] is “Active”.

With `CCOc1ccc(NCc2ccc(C)cc2)cc1`, the IC50 in assay [1] was 4.07 µM; in assay [2], more than 100 µM. Also, the inhibition entry in assay [3] was “Active”.

With `CCOc1ccc(NCc2ccccc2)cc1`, the IC50 in assay [1] and in assay [2] was more than 100 µM each time. In addition, in assay [3], the inhibition result was “Active”.

As to `Cc1ccc(CNc2ccc(Cl)cc2)cc1`, the half-inhibitory concentration (IC50) in assay [1] and in assay [2] was more than 100 µM in each case. The inhibition result in assay [3] was “Active”.

For the molecule `Cc1ccc(N(Cc2ccccc2)C(=O)/C=C/C(=O)N(Cc2ccccc2)c2ccc(C)cc2)cc1`, the IC50 in assay [1] is 26.3 µM; in assay [2], 12.5 µM. The inhibition result in assay [3] was “Active”.

For the molecule `CCc1ccc(NCc2ccccc2)cc1`, the IC50 in assay [1] and in assay [2] was more than 100 µM each time. Also, in assay [3], the inhibition entry is “Active”.

For the molecule `Cc1ccc(CNc2ccc(F)cc2)cc1`, the IC50 in assay [1] and in assay [2] was more than 100 µM each time. In addition, the inhibition entry in assay [3] was “Active”.

In the case of `Cc1ccc(NCc2ccccc2)cc1` [N-BENZYL-4-METHYLANILINE], the IC50 in assay [1] and in assay [2] was more than 100 µM each time. Moreover, the inhibition result in assay [3] is “Active”.

With `O=C(/C=C/C(=O)N(Cc1ccccc1)c1ccc(Cl)cc1)N(Cc1ccccc1)c1ccc(Cl)cc1`, the IC50 is 57.7 µM in assay [1] and 2.53 µM in assay [2]. Besides, the inhibition entry in assay [3] was “Active”.

Take `Cc1ccc(CN(C(=O)/C=C/C(=O)N(Cc2ccc(C)cc2)c2ccc(I)cc2)c2ccc(I)cc2)cc1`: the IC50 was found to be 24.6 µM in assay [1] and 17.7 µM in assay [2]. The inhibition entry in assay [3] is “Active”.

On to `Cc1ccc(CN(C(=O)/C=C/C(=O)N(Cc2ccc(C)cc2)c2ccc(Br)cc2)c2ccc(Br)cc2)cc1`, for which the inhibition result in assay [4], in assay [5] and in assay [3] was “Active” in each case. Also, the IC50 in assay [1] amounted to 23.1 µM; in assay [2], 0.14 µM.

For the molecule `COc1ccc(NCc2ccc(C)cc2)cc1`, the IC50 in assay [1] was more than 100 µM; in assay [2] it was 1.33 µM. Also, the inhibition entry in assay [3] was “Active”.

As to `Cc1ccc(CN(C(=O)/C=C/C(=O)N(Cc2ccc(C)cc2)c2ccc(C)cc2)c2ccc(C)cc2)cc1`, the IC50 in assay [1] worked out at 54.8 µM; in assay [2], 43.1 µM. The inhibition entry in assay [3] was “Active”.

For the molecule `Cc1ccc(CN(C(=O)/C=C/C(=O)N(Cc2ccc(C)cc2)c2ccc(Cl)cc2)c2ccc(Cl)cc2)cc1`, the results for the IC50 in assay [1] and in assay [2] were 45.6 µM and 2.42 µM, respectively. For the same molecule, the inhibition result in assay [3] is “Active”.

In the case of `COc1ccc(N(Cc2ccccc2)C(=O)/C=C/C(=O)N(Cc2ccccc2)c2ccc(OC)cc2)cc1`, the figures for the IC50 in assay [1] and in assay [2] were 43.6 µM and 13.9 µM, respectively. Besides, in assay [3], the inhibition result was “Active”.

As for `Cc1ccc(CNc2ccc(I)cc2)cc1`, the IC50 in assay [1] and in assay [2] was more than 100 µM in each case. Further, in assay [3], the inhibition result was “Active”.

Regarding `COc1ccc(N(Cc2ccc(C)cc2)C(=O)/C=C/C(=O)N(Cc2ccc(C)cc2)c2ccc(OC)cc2)cc1`, the IC50 amounted to 41 µM in assay [1] and 11.2 µM in assay [2]. Also, the inhibition entry in assay [3] was “Active”.

As for `CCc1ccc(NCc2ccc(C)cc2)cc1`, the IC50 in assay [1] and in assay [2] was more than 100 µM in each case. In assay [3], the inhibition result was “Active”.

In the case of `O=C(/C=C/C(=O)N(Cc1ccccc1)c1ccc(I)cc1)N(Cc1ccccc1)c1ccc(I)cc1`, the IC50 in assay [1] came to 23.3 µM; in assay [2], 0.97 µM. Besides, in assay [3], the inhibition entry was “Active”.

In the case of `Ic1ccc(NCc2ccccc2)cc1`, the IC50 in assay [1] and in assay [2] was more than 100 µM in each case. For the same molecule, in assay [3], the inhibition result was “Active”.

`CCc1ccc(N(Cc2ccc(C)cc2)C(=O)/C=C/C(=O)N(Cc2ccc(C)cc2)c2ccc(CC)cc2)cc1`: the IC50 in assay [1] worked out at 44.7 µM; in assay [2], 29.4 µM. In assay [3], the inhibition entry was “Active”.

In the case of `O=C(/C=C/C(=O)N(Cc1ccccc1)c1ccc(F)cc1)N(Cc1ccccc1)c1ccc(F)cc1`, the half-inhibitory concentration (IC50) amounted to 89.5 µM in assay [1] and 4.5 µM in assay [2]. In addition, in assay [3], the inhibition entry is “Active”.

Regarding `CCc1ccc(N(Cc2ccccc2)C(=O)/C=C/C(=O)N(Cc2ccccc2)c2ccc(CC)cc2)cc1`, the results for the 50% inhibitory concentration (IC50) in assay [1] and in assay [2] were 49.3 µM and 32.2 µM, respectively. Further, in assay [3], the inhibition result is “Active”.

Regarding `Cc1ccc(CN(C(=O)/C=C/C(=O)N(Cc2ccc(C)cc2)c2ccc(F)cc2)c2ccc(F)cc2)cc1`, the IC50 in assay [1] came out at 56.6 µM; in assay [2], 23.9 µM. Besides, the inhibition result in assay [3] was “Active”.

For `Fc1ccc(NCc2ccccc2)cc1`, the IC50 in assay [1] and in assay [2] was more than 100 µM in each case. Further, in assay [3], the inhibition entry was “Active”.

Turning to `CCOc1ccc(N(Cc2ccccc2)C(=O)/C=C/C(=O)N(Cc2ccccc2)c2ccc(OCC)cc2)cc1`, the IC50 is 44 µM in assay [1] and 35.9 µM in assay [2]. Besides, the inhibition entry in assay [3] is “Active”.

`O=C(/C=C/C(=O)N(Cc1ccccc1)c1ccccc1)N(Cc1ccccc1)c1ccccc1`: the IC50 came out at 52.4 µM in assay [1] and 11.8 µM in assay [2]. Further, the inhibition entry in assay [3] was “Active”.

On to `Clc1ccc(NCc2ccccc2)cc1`, for which the IC50 in assay [1] and in assay [2] was more than 100 µM each time. In addition, the inhibition entry in assay [3] was “Active”.

A word on the IC50: it is the midpoint of a concentration-inhibition curve.
